Patent US20110105408A1, “THERAPEUTIC PEPTIDES” (INTER-K PTY LIMITED, priority 2008, published 2011)
Entries after “also recorded” stand apart in the source; their conditions may differ.

How the values were obtained:
[1] = tested on: HT29 human colorectal adenocarcinoma tumour; experiment: Inhibition of HT29 tumour growth in a mouse model, intra-tumoural injection; type: in vivo, Mouse (Mus musculus) BALB/c nu/nu; conditions: for Tumour volume, Delta avg: change in volume from day 0
Experimental: HT29 human colorectal adenocarcinoma cells were cultured in RPMI 1640 cell culture medium supplemented with 10% v/v FCS and 50 IU/mL penicillin-streptomycin. The cells were harvested by trypsinisation, washed twice in HBSS and counted. The cells were then resuspended in HBSS to a final concentration of 2×10^7 cells/mL.
• Species: Mouse (Mus musculus) • Strain: BALB/c nu/nu • Source: University of Adelaide (Waite Campus, Urrbrae, SA, Australia) • Total number of animals in study: 20 females • Number of study groups: 2 (1 test, 1 control) • Number of mice per group: 10 • Body weight range: 20.61-25.27 g at onset of treatment (mean 22.27 g) • Age range: 10-12 weeks at onset of treatment.
Prior to inoculation the skin on the injection site (dorsal right flank) was swabbed with alcohol. The needle was introduced through the skin into the subcutaneous space just below the animal's right shoulder, and 100 μL of cells (2×10^6 cells) were discharged. The treatment of mice began nine days after HT29 cell inoculation, the average tumour volume was 68 mm^3 (average variability of 6.1%).
Body weight and tumour dimensions (length and diameter) were measured for all animals on the first day of treatment (day 0) and then three times per week, including the termination day of the study (Day 24).
Mice were randomized, based on body weight, into two groups of ten mice on Day 0 of the study. The peptide dendrimer IK248B presenting 10 monomer units of the peptide RSKAKNPLYR (SEQ ID No. 6) (see Example 8) was used in this study. The vehicle control (phosphate buffered saline (PBS)) and IK248B dendrimer (20 mg/kg) were each administered by intra-tumoural injection once daily for five consecutive days, beginning on Day 0.
The vehicle control and IK248B dendrimer were administered at a dosing volume of 4.762 mL/kg (100 μL) based on a 21 g mouse. Each animal's body weight was measured immediately prior to dosing. The volume of dosing solution administered to each mouse was calculated and adjusted based on individual body weight.
Tumours were excised from all mice post mortem and weighed. Tumour volume was calculated using the equation:
V(mm^3)=length×diameter^2×p/6
ΔT/ΔC(%) was calculated using the following equation:
ΔT/ΔC(%)=(ΔvolumeTreatment/ΔVolumeControl)×100
where Δ=change in volume from day 0 to the final measurement day or nominated day of interest.
All statistical calculations were performed using SigmaStat 3.0 (SPSS Australasia, North Sydney, NSW, Australia). A two-sample t-test was used to determine the significance in body weight change within a treatment group between day 0 and day 4, and between day 0 and the termination day of the study. A One-Way Analysis of Variance (ANOVA) was performed on tumour volumes measured in all mice at the end of the study. Where significant differences were found in the data, the All Pairwise Multiple Comparison Procedures (Holm-Sidak Method) were performed. A two-sample t-test was used to show a significant difference between the tumour weight data for the vehicle control and Dend 10 10(4) treatment groups. A p value of less than 0.05 was considered significant.

HT29 colon cancer cells = experiment: Cell proliferation (MTT) assay, HT29 cells; type: cell-based, human
Experimental: Single cell suspensions of viable trypsinised cells were seeded into 96-well tissue culture plates at a density of 2×10^3 cells per well in a volume of 100 μl of a suitable culture media with foetal calf serum (FCS) (e.g., Dulbecco's Modified Eagles Medium (DMEM), with 10% v/v FCS, glutamine, Hepes, and antibiotics). A set of triplicate wells was prepared for each concentration of the peptide dendrimer being tested. Additional sample wells containing untreated cells or media alone were set up in each treatment plate and processed in parallel as reference controls. A zero-time plate of untreated cells and media-alone wells was simultaneously prepared and an MTT assay carried out on this plate at the time of test peptide dendrimer addition to treatment plates. All plates were cultured for 24 hours before addition of the test dendrimer. To prepare the MTT solution 100 mg of MTT (3-(4,5-dimethylthiazolyl-2)-2,5-diphenyltetrazolium bromide) (Cat #. M-128, Sigma, St Louis Mo.), is mixed with 20 ml of PBS at pH 7.4. The resulting solution is filter sterilized (0.2 μM syringe filter) and stored at 4° C. protected from light until use. MTT substrate is cleaved in growing cells to yield a water insoluble salt. After solubilisation of the salt crystals, a coloured product is produced the measurement of which allows quantitation of the proliferative activity of the cultured cells.
Appropriate concentrations of the test dendrimer were prepared by dilution of freshly prepared sterile 1 mM stock solutions into cell culture media to give a final well volume of 200 μl containing 10% v/v FCS. The zero-plate was processed by addition of MTT at this time. Cell culture was continued for a further 24 or 48 hours before addition of 20 μl of MTT in PBS (5 mg/ml, 0.2 um filter sterilised). The MTT cell proliferation assay measures cell proliferation rate and, in instances where cell viability is compromised, the assay indicates a comparative reduction in cell viability. After a 3 hour incubation in the presence of MTT (5% CO2 in air at 37° C.), plates were centifuged at 450 g for 5 minutes, supernatant removed by gentle suction and precipitated tetrazolium salt resuspended into 150 μl DMSO:glycine (0.1 M glycine, 0.1 M NaCl pH 10.5) (6:1 v/v) solution. Plates were gently vortexed to complete solubilisation of crystalline material and absorbance was read at 540-550 nm using a microplate reader. Sample data were processed to determine the comparative growth of treated samples relative to untreated controls.
HT29 cells were cultured for 48 hours in the presence of selected dendrimers and proliferation of the cells was assessed by MTT assay essentially as described in Example 1.2. The results were calculated as percentage proliferation of control cells (not treated with dendrimer).

CC(C)C[C@H](NC(=O)[C@@H]1CCCN1C(=O)[C@H](CC(N)=O)NC(=O)[C@H](CCCCN)NC(=O)[C@H](C)NC(=O)[C@H](CCCCN)NC(=O)[C@H](CO)NC(=O)[C@@H](N)CCCNC(=N)N)C(=O)N[C@@H](Cc1ccc(O)cc1)C(=O)N[C@@H](CCCNC(=N)N)C(=O)NCCCC[C@H](NC(=O)[C@H](CCCCNC(=O)[C@H](CCCCNC(=O)[C@H](CCCNC(=N)N)NC(=O)[C@H](Cc1ccc(O)cc1)NC(=O)[C@H](CC(C)C)NC(=O)[C@@H]1CCCN1C(=O)[C@H](CC(N)=O)NC(=O)[C@H](CCCCN)NC(=O)[C@H](C)NC(=O)[C@H](CCCCN)NC(=O)[C@H](CO)NC(=O)[C@@H](N)CCCNC(=N)N)NC(=O)[C@H](CCCNC(=N)N)NC(=O)[C@H](Cc1ccc(O)cc1)NC(=O)[C@H](CC(C)C)NC(=O)[C@@H]1CCCN1C(=O)[C@H](CC(N)=O)NC(=O)[C@H](CCCCN)NC(=O)[C@H](C)NC(=O)[C@H](CCCCN)NC(=O)[C@H](CO)NC(=O)[C@@H](N)CCCNC(=N)N)NC(=O)[C@H](CCCCNC(=O)[C@H](CCCNC(=N)N)NC(=O)[C@H](Cc1ccc(O)cc1)NC(=O)[C@H](CC(C)C)NC(=O)[C@@H]1CCCN1C(=O)[C@H](CC(N)=O)NC(=O)[C@H](CCCCN)NC(=O)[C@H](C)NC(=O)[C@H](CCCCN)NC(=O)[C@H](CO)NC(=O)[C@@H](N)CCCNC(=N)N)NC(=O)[C@H](CCCNC(=N)N)NC(=O)[C@H](Cc1ccc(O)cc1)NC(=O)[C@H](CC(C)C)NC(=O)[C@@H]1CCCN1C(=O)[C@H](CC(N)=O)NC(=O)[C@H](CCCCN)NC(=O)[C@H](C)NC(=O)[C@H](CCCCN)NC(=O)[C@H](CO)NC(=O)[C@@H](N)CCCNC(=N)N)C(=O)NCCCC[C@H](NC(=O)[C@H](CCCCNC(=O)[C@H](CCCNC(=N)N)NC(=O)[C@H](Cc1ccc(O)cc1)NC(=O)[C@H](CC(C)C)NC(=O)[C@@H]1CCCN1C(=O)[C@H](CC(N)=O)NC(=O)[C@H](CCCCN)NC(=O)[C@H](C)NC(=O)[C@H](CCCCN)NC(=O)[C@H](CO)NC(=O)[C@@H](N)CCCNC(=N)N)NC(=O)[C@H](CCCCNC(=O)[C@H](CCCCNC(=O)[C@H](CCCNC(=N)N)NC(=O)[C@H](Cc1ccc(O)cc1)NC(=O)[C@H](CC(C)C)NC(=O)[C@@H]1CCCN1C(=O)[C@H](CC(N)=O)NC(=O)[C@H](CCCCN)NC(=O)[C@H](C)NC(=O)[C@H](CCCCN)NC(=O)[C@H](CO)NC(=O)[C@@H](N)CCCNC(=N)N)NC(=O)[C@H](CCCNC(=N)N)NC(=O)[C@H](Cc1ccc(O)cc1)NC(=O)[C@H](CC(C)C)NC(=O)[C@@H]1CCCN1C(=O)[C@H](CC(N)=O)NC(=O)[C@H](CCCCN)NC(=O)[C@H](C)NC(=O)[C@H](CCCCN)NC(=O)[C@H](CO)NC(=O)[C@@H](N)CCCNC(=N)N)NC(=O)[C@H](CCCCNC(=O)[C@H](CCCNC(=N)N)NC(=O)[C@H](Cc1ccc(O)cc1)NC(=O)[C@H](CC(C)C)NC(=O)[C@@H]1CCCN1C(=O)[C@H](CC(N)=O)NC(=O)[C@H](CCCCN)NC(=O)[C@H](C)NC(=O)[C@H](CCCCN)NC(=O)[C@H](CO)NC(=O)[C@@H](N)CCCNC(=N)N)NC(=O)[C@H](CCCNC(=N)N)NC(=O)[C@H](Cc1ccc(O)cc1)NC(=O)[C@H](CC(C)C)NC(=O)[C@@H]1CCCN1C(=O)[C@H](CC(N)=O)NC(=O)[C@H](CCCCN)NC(=O)[C@H](C)NC(=O)[C@H](CCCCN)NC(=O)[C@H](CO)NC(=O)[C@@H](N)CCCNC(=N)N)C(=O)NCCC(N)=O [IK248B]
tumour growth compared to vehicle only control ([1]; 20 mg/kg intra-tumoural once daily for five days): markedly inhibited | average tumour weight at the end of the study ([1]; 20 mg/kg intra-tumoural once daily for five days, Day 24, control 0.962 g): 0.437 g | dT/dC [%] ([1]; Day 0): 100.0% | Tumour volume, Delta avg ([1]; Day 0): 0.0 mm^3 | Tumour volume, Average ([1]; Day 0 post-initial treatment): 68.0 mm^3 | dT/dC [%] ([1]; Day 2): 134.3% | Tumour volume, Delta avg ([1]; Day 2): 68.6 mm^3 | Tumour volume, Average ([1]; Day 2 post-initial treatment): 136.6 mm^3 | dT/dC [%] ([1]; Day 4): 102.0% | Tumour volume, Delta avg ([1]; Day 4): 144.0 mm^3 | Tumour volume, Average ([1]; Day 4 post-initial treatment): 211.9 mm^3 | dT/dC [%] ([1]; Day 7): 68.1% | Tumour volume, Delta avg ([1]; Day 7): 180.6 mm^3 | Tumour volume, Average ([1]; Day 7 post-initial treatment): 248.6 mm^3 | dT/dC [%] ([1]; Day 11): 58.0% | Tumour volume, Delta avg ([1]; Day 11): 232.9 mm^3 | Tumour volume, Average ([1]; Day 11 post-initial treatment): 300.9 mm^3 | dT/dC [%] ([1]; Day 14): 44.6% | Tumour volume, Delta avg ([1]; Day 14): 255.9 mm^3 | Tumour volume, Average ([1]; Day 14 post-initial treatment): 323.9 mm^3 | dT/dC [%] ([1]; Day 16): 45.2% | Tumour volume, Delta avg ([1]; Day 16): 323.1 mm^3 | Tumour volume, Average ([1]; Day 16 post-initial treatment): 391.0 mm^3 | dT/dC [%] ([1]; Day 18): 47.1% | Tumour volume, Delta avg ([1]; Day 18): 408.9 mm^3 | Tumour volume, Average ([1]; Day 18 post-initial treatment): 476.9 mm^3 | dT/dC [%] ([1]; Day 21): 55.7% | Tumour volume, Delta avg ([1]; Day 21): 598.7 mm^3 | Tumour volume, Average ([1]; Day 21 post-initial treatment): 601.5 mm^3 | dT/dC [%] ([1]; Day 24): 54.5% | Tumour volume, Delta avg ([1]; Day 24): 710.4 mm^3 | Tumour volume, Average ([1]; Day 24 post-initial treatment): 702.1 mm^3 | inhibition of proliferation of HT29 cells (MTT) (HT29 colon cancer cells; 48 hours culture with dendrimer): proliferation of the cells was inhibited; also recorded: more effective than dendrimer IK248 | dendrimer concentration required for total kill (HT29 colon cancer cells; HT29 cells, 48 hours, MTT): 10 µM
